Laboratory results taken from article PMC8802806, “Synthesis and Antitumor Activity of Erlotinib Derivatives Linked With 1,2,3-Triazole” (Frontiers in Pharmacology, 2022).
“And” between values parts separate entries of the source, which are not always exact repeats. Equal entries are not always repeated. Where two headings read alike, the source gives them in different places.

Legend:
Assay type in all cases: cell-based, human
HeLa cells [1] = test: Flow cytometry detection for cell apoptosis (Annexin V/PI); details: for Q1 (flow cytometry quadrant, Figure 4A) / Q4 (flow cytometry quadrant, Figure 4A) / Q2: FITC-A+ , PE-A+ Freq. of Parent / Q3: FITC-A+ , PE-A- Freq. of Parent: Annexin V/PI; for Q2: FITC-A+ , PE-A+ Freq. of Parent / Q3: FITC-A+ , PE-A- Freq. of Parent / Q2+Q3 (column without head, sum on percent scale): single samples
Method: Cell-apoptosis analysis was carried out by flow cytometry using the Annexin V/PI apoptosis kit (Solarbio, China) according to the manufacturer’s manual. Briefly, HeLa (5 × 10^4/well) cells were seeded in 12-well plates for 24 h and then treated with 0.1% DMSO (as control) or various concentrations of compounds 4d, 4k, and 4l for 72 h, respectively. Cells were harvested, washed with PBS, and then incubated with 100 μl of 1 × Annexin V binding buffer containing 1 μl FITC Annexin V for 10 min at RT in the dark. Cells were incubated for another 5 min at room temperature (RT) in the dark after 1 μl PI was added. PBS (200 µl) was added to each tube for flow cytometry analysis (BriCyte E6). The percentages of apoptotic cells were analyzed using FlowJo soft.

HeLa cells [2] = test: Cell antiproliferative activity assay (CCK8); details: Homo sapiens; for IC50: HeLa; for inhibition at 0.25 µM: 250 nM; for inhibition at 0.5 µM: 500 nM; for inhibition at 1 µM: 1000 nM; for inhibition at 2 µM: 2000 nM; for inhibition at 4 µM: 4000 nM; for inhibition at 8 µM: 8000 nM; for inhibition at 16 µM: 16000 nM
Method: Cell antiproliferative activity was evaluated by the Cell Counting Kit-8 (CCK8, DOJINDO, Japan) assay. The cells were seeded at a density of 2,000 cells per well into 96-well microplate in 100 μl of growth medium. Cells were incubated at 37°C and 5% CO2 overnight. The next day, 100 μl per well of diluted inhibitor in growth medium was added with the final concentration from 0.1 nM to 100 μM. The cells were treated with DMSO as control. A series of dilutions are made in 0.1% DMSO in assay medium so that the final concentration of DMSO is 0.1% in all of treatments. Cells were incubated at 37°C and 5% CO2 for 48 h. Then, 10 μl of CCK8 was added to each well. The plates were incubated at 37°C for 2 h; after that, the plates were recorded by measuring absorbance at 450 nm with the reference wavelength of 630 nm using an EnVision Multilabel Reader (PerkinElmer). The IC50 values were calculated using GraphPad Prism 6.0 software and determined by the concentration causing a half-maximal percent activity. All assays were conducted with three parallel samples and three repetitions.

HeLa cells [3] = test: Colony formation assay; details: for effect on cell colony formation: 2 weeks
Method: HeLa cells were seeded in six-well plates at the density of 500/well for 24 h, and then treated with 0.1% DMSO (as control), various concentrations of compounds 4d, 4k, and 4l, respectively. The cells were incubated for 2 weeks in a 5% CO2 environment at 37°C for colony formation. The media was gently removed from each of the plates, and then each plate was washed with PBS twice. The colonies were fixed with 4% polyformaldehyde for 10 min and then wash the cells with ddH2O twice. Stain with 1 ml Crystal Violet Staining Solution (Beyotime, China) for 10 min. Wash excess crystal violet with ddH2O and allow dishes to dry. Take pictures of the plate and count the colonies.

[4] = HELA 2000cells/well, Repeat1, read-out: Inhibition (%) Repeat1
[5] = HELA 2000cells/well, Repeat2, read-out: Inhibition (%) Repeat2

COCCOc1cc2ncnc(Nc3cccc(-c4cn(Cc5cc(Br)cc(Br)c5)nn4)c3)c2cc1OCCOC [Compound 4d, [6,7-Bis-(2-methoxy-ethoxy)-quinazolin-4-yl]-{3-[1-(3,5-dibromo-benzyl)-1H-[1,2,3]triazol-4-yl]-phenyl}-amine]
Q1 (flow cytometry quadrant, Figure 4A) (HeLa cells [1]; 3 μM, 72 h): 5.78% | Q4 (flow cytometry quadrant, Figure 4A) (HeLa cells [1]; 3 μM, 72 h): 84.2% | Q2: FITC-A+ , PE-A+ Freq. of Parent (HeLa cells [1]; 3 μM, 72 h): 9.25% | Q3: FITC-A+ , PE-A- Freq. of Parent (HeLa cells [1]; 3 μM, 72 h): 0.82% | Q2: FITC-A+ , PE-A+ Freq. of Parent (HeLa cells [1]; 3 μM, 72 h, listed as e4): 6.79% and 7.35% and 9.25% | Q3: FITC-A+ , PE-A- Freq. of Parent (HeLa cells [1]; 3 μM, 72 h, listed as e4): 1.73% and 1.08% and 0.82% | Q2+Q3 (column without head, sum on percent scale) (HeLa cells [1]; 3 μM, listed as e4): 8.52 and 8.43 and 10.07 | Q1 (flow cytometry quadrant, Figure 4A) (HeLa cells [1]; 6 μM, 72 h): 5.52% | Q4 (flow cytometry quadrant, Figure 4A) (HeLa cells [1]; 6 μM, 72 h): 81.2% | Q2: FITC-A+ , PE-A+ Freq. of Parent (HeLa cells [1]; 6 μM, 72 h): 10.5% | Q3: FITC-A+ , PE-A- Freq. of Parent (HeLa cells [1]; 6 μM, 72 h): 2.69% | Q2: FITC-A+ , PE-A+ Freq. of Parent (HeLa cells [1]; 6 μM, 72 h, listed as e4): 8.90% and 10.1% and 10.5% | Q3: FITC-A+ , PE-A- Freq. of Parent (HeLa cells [1]; 6 μM, 72 h, listed as e4): 3.61% and 5.29% and 2.69% | Q2+Q3 (column without head, sum on percent scale) (HeLa cells [1]; 6 μM, listed as e4): 12.51 and 15.39 and 13.19 | Q1 (flow cytometry quadrant, Figure 4A) (HeLa cells [1]; 12 μM, 72 h): 2.40% | Q4 (flow cytometry quadrant, Figure 4A) (HeLa cells [1]; 12 μM, 72 h): 5.68% | Q2: FITC-A+ , PE-A+ Freq. of Parent (HeLa cells [1]; 12 μM, 72 h): 86.4% | Q3: FITC-A+ , PE-A- Freq. of Parent (HeLa cells [1]; 12 μM, 72 h): 5.49% | Q2: FITC-A+ , PE-A+ Freq. of Parent (HeLa cells [1]; 12 μM, 72 h, listed as e4): 86.4% and 80.4% and 81.8% | Q3: FITC-A+ , PE-A- Freq. of Parent (HeLa cells [1]; 12 μM, 72 h, listed as e4): 5.49% and 3.94% and 3.82% | cell apoptosis in HeLa cells, percentage (HeLa cells [1]; 12 μM, 72 h, three independent experiments): 87.28% | Q2+Q3 (column without head, sum on percent scale) (HeLa cells [1]; 12 μM, listed as e4): 91.89 and 84.34 and 85.62 | IC50 (HeLa cells [2]; 48 h, HeLa cells, CCK8, 48 h, mean ± SD, n = 3, read-out: IC50 (μM) HeLa): 7.02 ± 0.04 µM | IC50 (HeLa cells [2]; HELA 2000cells/well, supplement DataSheet2, Repeat1, read-out: IC50 Repeat1): 7.07 µM | IC50 (HeLa cells [2]; HELA 2000cells/well, supplement DataSheet2, Repeat 2, read-out: IC50 Repeat 2): 6.98 µM | IC50 (HeLa cells [2]; HELA 2000cells/well, supplement DataSheet2, mean of two repeats ± SD, read-out: IC50 mean±SD): 7.025 ± 0.0445 µM | inhibition at 0.25 µM (HeLa cells [2]; [4]): 9.75% | inhibition at 0.25 µM (HeLa cells [2]; [5]): 0% | inhibition at 0.5 µM (HeLa cells [2]; [4]): 13% | inhibition at 0.5 µM (HeLa cells [2]; [5]): 13.6% | inhibition at 1 µM (HeLa cells [2]; [4]): 16.9% | inhibition at 1 µM (HeLa cells [2]; [5]): 14% | inhibition at 2 µM (HeLa cells [2]; [4]): 17% | inhibition at 2 µM (HeLa cells [2]; [5]): 15.3% | inhibition at 4 µM (HeLa cells [2]; [4]): 25.3% | inhibition at 4 µM (HeLa cells [2]; [5]): 26.6% | inhibition at 8 µM (HeLa cells [2]; [4]): 53.2% | inhibition at 8 µM (HeLa cells [2]; [5]): 54.6% | inhibition at 16 µM (HeLa cells [2]; [4]): 78.2% | inhibition at 16 µM (HeLa cells [2]; [5]): 78.4% | effect on cell colony formation (HeLa cells [3]; 6 μM): decrease the number of colonies | effect on cell colony formation (HeLa cells [3]; 12 μM): entirely inhibited | Number of Colonies /well (HeLa cells [3]; 12 uM, repeats 1-3): 0
